Values belong to the compound of their own block, whether it stands above or below them.
Columns and labels:
Experiment in all cases: Further kinase screen, Invitrogen Z'-LYTE
Format in all cases: biochemical
Settings in all cases: Table 3
CSNK1G3 (CK1 gamma 3) = target: T1, CSNK1G3 (CK1 gamma 3) (Homo sapiens, UniProt Q9Y6M4)
T1 construct: purchased Invitrogen
Method: (§1) Kinase profiling was conducted using Invitrogen Z'-LYTE screening protocol and assay conditions found at www.invitrogen.com. Compound (2) inhibited PLK1 completely at 5 μM.
(§2) A further kinase screen was performed on Compounds (2), (4A), and (4B) using the assay described above.

GSK3B (GSK3 beta) = target: T2, GSK3B (GSK3 beta) (Homo sapiens, UniProt P49841)
T2 construct: purchased Invitrogen
Method: as §1, §2

RPS6KA5 (MSK1) = target: T3, RPS6KA5 (MSK1) (Homo sapiens, UniProt O75582)
T3 construct: purchased Invitrogen
T3 sequence (O75582 whole entry): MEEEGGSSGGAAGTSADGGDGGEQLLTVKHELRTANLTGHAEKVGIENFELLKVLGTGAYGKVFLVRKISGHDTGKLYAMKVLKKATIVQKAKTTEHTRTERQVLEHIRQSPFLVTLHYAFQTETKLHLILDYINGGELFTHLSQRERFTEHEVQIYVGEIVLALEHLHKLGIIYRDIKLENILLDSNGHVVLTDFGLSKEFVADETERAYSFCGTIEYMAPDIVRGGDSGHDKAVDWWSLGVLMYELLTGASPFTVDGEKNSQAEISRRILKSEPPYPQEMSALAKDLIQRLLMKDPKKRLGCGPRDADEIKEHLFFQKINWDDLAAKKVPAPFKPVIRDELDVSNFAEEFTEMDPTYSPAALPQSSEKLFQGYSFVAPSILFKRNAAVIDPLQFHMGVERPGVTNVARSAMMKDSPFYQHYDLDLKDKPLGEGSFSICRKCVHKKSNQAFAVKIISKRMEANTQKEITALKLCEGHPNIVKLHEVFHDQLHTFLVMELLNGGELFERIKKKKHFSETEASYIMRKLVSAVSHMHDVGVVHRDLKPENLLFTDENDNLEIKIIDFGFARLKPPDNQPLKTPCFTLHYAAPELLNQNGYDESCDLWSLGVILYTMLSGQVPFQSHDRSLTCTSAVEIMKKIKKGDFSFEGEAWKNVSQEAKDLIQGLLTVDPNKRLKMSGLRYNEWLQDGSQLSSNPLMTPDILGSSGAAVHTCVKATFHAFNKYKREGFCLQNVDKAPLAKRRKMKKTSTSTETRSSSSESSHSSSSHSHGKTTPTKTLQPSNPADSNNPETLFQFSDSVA
Method: as §1, §2

MAPKAPK2 = target: T4, MAPKAPK2 (Homo sapiens, UniProt P49137)
T4 construct: purchased Invitrogen
T4 sequence (P49137 whole entry): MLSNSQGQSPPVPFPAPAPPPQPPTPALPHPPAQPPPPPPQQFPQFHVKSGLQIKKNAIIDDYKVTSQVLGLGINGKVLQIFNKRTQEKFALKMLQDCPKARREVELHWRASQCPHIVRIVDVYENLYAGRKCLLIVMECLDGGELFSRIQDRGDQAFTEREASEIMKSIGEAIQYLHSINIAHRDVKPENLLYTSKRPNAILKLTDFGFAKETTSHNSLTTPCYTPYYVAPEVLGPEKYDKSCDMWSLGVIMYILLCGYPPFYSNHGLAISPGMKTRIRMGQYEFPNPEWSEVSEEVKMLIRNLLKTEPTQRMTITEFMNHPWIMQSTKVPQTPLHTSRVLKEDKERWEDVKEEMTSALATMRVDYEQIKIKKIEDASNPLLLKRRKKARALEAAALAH
Method: as §1, §2

CDK2/cyclin A = target: T5, CDK2/cyclin A (Homo sapiens, UniProt P24941)
T5 construct: purchased Invitrogen
Method: as §1, §2

TYK2 = target: T6, TYK2 (Homo sapiens, UniProt P29597)
T6 construct: purchased Invitrogen
T6 sequence (P29597 whole entry): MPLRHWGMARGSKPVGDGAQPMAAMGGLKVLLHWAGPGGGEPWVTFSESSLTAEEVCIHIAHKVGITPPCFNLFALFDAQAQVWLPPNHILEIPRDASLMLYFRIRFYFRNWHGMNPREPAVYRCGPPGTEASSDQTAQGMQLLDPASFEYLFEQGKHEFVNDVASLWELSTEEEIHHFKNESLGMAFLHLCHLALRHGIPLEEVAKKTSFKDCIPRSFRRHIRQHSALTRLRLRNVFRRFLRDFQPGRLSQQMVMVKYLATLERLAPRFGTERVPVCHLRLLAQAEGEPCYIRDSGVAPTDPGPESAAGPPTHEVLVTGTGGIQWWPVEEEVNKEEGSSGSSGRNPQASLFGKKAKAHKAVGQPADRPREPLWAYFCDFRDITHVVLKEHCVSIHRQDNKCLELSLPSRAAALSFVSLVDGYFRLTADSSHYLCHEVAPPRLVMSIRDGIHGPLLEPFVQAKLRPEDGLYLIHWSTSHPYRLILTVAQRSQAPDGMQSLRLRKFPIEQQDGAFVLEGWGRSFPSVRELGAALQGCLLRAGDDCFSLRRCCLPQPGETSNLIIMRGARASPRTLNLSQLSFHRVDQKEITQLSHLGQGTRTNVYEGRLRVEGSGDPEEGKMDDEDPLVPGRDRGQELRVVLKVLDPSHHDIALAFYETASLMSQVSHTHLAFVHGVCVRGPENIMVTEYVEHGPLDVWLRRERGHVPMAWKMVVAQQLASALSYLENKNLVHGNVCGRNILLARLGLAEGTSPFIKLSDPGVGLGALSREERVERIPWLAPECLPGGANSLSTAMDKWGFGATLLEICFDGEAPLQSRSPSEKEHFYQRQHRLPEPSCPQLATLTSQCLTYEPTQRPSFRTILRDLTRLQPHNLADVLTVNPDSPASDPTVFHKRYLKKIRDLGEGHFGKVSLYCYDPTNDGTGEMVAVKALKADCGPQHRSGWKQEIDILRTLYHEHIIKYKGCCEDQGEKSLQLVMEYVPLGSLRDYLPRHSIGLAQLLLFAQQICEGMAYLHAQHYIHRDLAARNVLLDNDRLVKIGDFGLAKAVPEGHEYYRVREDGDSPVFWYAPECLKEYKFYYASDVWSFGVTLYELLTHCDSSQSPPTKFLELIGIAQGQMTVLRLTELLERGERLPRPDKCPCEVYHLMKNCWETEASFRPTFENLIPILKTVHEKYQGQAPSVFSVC
Method: as §1, §2

JAK3 = target: T7, JAK3 (Homo sapiens, UniProt P52333)
T7 construct: purchased Invitrogen
T7 sequence (P52333 1-1124): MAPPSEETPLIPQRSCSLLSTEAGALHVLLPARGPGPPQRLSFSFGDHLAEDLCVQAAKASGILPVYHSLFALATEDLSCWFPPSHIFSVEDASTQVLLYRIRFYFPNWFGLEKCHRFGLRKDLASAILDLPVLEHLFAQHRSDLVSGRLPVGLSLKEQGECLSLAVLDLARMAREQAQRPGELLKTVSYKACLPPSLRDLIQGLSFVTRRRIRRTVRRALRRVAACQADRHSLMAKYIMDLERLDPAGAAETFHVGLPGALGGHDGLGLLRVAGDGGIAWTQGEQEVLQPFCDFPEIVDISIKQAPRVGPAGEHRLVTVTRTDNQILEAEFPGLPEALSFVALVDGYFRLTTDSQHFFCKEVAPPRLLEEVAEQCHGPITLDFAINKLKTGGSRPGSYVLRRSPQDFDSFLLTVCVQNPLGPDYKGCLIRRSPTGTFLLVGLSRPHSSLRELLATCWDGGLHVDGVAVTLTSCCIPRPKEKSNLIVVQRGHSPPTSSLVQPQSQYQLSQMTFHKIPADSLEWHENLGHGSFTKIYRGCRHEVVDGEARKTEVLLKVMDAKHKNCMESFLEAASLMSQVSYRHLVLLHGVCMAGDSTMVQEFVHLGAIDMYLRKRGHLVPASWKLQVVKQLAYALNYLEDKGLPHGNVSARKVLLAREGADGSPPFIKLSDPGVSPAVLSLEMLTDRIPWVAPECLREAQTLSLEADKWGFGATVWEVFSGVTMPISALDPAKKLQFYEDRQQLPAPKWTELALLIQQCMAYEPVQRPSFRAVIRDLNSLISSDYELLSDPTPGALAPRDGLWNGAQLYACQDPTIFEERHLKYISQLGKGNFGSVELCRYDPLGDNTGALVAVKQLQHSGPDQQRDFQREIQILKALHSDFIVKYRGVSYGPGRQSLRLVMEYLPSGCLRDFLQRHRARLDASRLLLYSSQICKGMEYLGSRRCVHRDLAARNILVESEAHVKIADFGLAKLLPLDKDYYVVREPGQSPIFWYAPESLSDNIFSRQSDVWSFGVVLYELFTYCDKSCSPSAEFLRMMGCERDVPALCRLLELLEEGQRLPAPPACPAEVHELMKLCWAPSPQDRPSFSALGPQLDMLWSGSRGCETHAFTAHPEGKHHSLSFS
Method: as §1, §2

SGK (SGK1) = target: T8, SGK (SGK1) (Homo sapiens, UniProt O00141)
T8 construct: purchased Invitrogen
T8 sequence (O00141 1-431): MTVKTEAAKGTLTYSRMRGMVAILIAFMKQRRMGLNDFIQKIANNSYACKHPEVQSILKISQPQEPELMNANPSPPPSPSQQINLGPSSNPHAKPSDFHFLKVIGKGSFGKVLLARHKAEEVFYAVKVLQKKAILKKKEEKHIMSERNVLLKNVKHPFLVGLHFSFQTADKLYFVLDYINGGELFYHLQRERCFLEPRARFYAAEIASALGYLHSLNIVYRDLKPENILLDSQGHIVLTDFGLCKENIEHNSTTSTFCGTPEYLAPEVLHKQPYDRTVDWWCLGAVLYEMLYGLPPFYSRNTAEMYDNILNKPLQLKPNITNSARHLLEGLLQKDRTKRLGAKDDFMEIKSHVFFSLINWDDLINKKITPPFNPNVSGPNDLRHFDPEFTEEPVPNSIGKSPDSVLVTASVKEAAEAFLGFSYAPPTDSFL
Method: as §1, §2

CAMK4 (CaMKIV) = target: T9, CAMK4 (CaMKIV) (Homo sapiens, UniProt Q16566)
T9 construct: purchased Invitrogen
Method: as §1, §2

RPS6KA3 (RSK2) = target: T10, RPS6KA3 (RSK2) (Homo sapiens, UniProt P51812)
T10 construct: purchased Invitrogen
T10 sequence (P51812 whole entry): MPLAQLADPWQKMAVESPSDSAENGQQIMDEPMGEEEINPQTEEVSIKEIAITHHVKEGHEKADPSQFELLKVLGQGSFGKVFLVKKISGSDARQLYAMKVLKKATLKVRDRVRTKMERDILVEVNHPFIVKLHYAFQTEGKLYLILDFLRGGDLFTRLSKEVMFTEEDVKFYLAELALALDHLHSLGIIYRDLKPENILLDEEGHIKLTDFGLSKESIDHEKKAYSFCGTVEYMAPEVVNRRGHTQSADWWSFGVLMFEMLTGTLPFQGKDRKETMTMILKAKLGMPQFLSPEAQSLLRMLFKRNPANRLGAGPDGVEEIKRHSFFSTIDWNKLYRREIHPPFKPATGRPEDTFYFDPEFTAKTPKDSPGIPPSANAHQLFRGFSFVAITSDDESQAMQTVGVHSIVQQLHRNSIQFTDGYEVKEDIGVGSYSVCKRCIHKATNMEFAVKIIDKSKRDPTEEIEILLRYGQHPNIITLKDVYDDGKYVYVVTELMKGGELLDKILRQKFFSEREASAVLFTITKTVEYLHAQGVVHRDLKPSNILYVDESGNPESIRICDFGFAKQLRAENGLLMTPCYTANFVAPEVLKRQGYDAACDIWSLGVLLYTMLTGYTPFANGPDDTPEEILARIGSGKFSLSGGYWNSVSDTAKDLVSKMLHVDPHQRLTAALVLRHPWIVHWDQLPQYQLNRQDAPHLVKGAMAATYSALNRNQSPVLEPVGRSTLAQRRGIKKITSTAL
Method: as §1, §2

CAMK2A (CaMKII alpha) = target: T11, CAMK2A (CaMKII alpha) (Homo sapiens, UniProt Q9UQM7)
T11 construct: purchased Invitrogen
Method: as §1, §2

GRK6 = target: T12, GRK6 (Homo sapiens, UniProt P43250)
T12 construct: purchased Invitrogen
T12 sequence (P43250 whole entry): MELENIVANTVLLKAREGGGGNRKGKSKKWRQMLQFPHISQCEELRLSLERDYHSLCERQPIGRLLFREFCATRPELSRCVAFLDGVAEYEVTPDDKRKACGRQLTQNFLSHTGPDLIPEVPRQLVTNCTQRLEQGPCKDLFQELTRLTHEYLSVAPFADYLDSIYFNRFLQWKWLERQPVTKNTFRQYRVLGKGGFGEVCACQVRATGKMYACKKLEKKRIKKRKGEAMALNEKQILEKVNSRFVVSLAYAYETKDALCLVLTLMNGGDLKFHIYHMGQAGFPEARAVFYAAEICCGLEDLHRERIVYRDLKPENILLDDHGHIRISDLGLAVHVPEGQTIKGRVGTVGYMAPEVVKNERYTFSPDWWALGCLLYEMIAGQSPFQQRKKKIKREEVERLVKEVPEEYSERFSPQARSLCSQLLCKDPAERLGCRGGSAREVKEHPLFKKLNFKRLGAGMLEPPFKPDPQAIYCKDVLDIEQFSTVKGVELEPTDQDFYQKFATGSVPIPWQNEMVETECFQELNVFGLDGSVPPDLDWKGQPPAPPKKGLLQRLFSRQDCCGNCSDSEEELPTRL
Method: as §1, §2

SRPK1 = target: T13, SRPK1 (Homo sapiens, UniProt Q96SB4)
T13 construct: purchased Invitrogen
T13 sequence (Q96SB4 whole entry): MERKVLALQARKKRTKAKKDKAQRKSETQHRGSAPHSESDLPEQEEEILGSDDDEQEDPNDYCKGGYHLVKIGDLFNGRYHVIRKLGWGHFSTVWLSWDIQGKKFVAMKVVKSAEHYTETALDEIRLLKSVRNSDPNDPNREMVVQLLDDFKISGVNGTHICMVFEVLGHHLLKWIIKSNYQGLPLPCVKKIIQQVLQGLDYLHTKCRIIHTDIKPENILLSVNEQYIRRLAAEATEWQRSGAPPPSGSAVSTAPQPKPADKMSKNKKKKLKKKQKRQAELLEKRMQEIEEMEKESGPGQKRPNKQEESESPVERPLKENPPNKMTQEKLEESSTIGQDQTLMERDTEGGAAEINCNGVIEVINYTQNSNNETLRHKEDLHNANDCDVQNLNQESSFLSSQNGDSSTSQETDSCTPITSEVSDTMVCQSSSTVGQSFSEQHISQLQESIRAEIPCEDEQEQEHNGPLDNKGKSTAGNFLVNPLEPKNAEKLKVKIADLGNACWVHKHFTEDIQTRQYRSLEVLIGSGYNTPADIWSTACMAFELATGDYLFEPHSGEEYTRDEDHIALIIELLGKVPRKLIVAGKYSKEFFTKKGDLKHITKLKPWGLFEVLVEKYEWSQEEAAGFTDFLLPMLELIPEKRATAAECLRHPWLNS
Method: as §1, §2

SYK = target: T14, SYK (Homo sapiens, UniProt P43405)
T14 construct: purchased Invitrogen
Method: as §1, §2

T1 sequence (Q9Y6M4 whole entry): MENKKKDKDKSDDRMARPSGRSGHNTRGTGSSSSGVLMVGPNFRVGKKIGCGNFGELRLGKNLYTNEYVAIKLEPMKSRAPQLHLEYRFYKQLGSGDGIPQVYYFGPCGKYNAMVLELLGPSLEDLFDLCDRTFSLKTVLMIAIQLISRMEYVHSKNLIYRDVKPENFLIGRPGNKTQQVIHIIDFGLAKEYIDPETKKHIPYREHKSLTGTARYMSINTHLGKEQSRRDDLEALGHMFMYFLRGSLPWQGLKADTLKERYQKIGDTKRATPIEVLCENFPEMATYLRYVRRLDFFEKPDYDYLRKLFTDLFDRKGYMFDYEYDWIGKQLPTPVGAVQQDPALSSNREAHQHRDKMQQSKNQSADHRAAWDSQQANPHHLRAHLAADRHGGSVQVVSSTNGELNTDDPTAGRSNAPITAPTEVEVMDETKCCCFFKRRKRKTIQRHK

Structure (SMILES): COc1ccc(OC(=O)n2c(=O)oc3cc(C(C)=O)ccc32)cc1 [Compound 2]
% Inhibition Point 1 (CSNK1G3 (CK1 gamma 3)): 13%
% Inhibition Point 2 (CSNK1G3 (CK1 gamma 3)): 16%
% Inhibition mean (CSNK1G3 (CK1 gamma 3)): 14%
% Inhibition Point 1 (GSK3B (GSK3 beta)): −7%
% Inhibition Point 2 (GSK3B (GSK3 beta)): 0%
% Inhibition mean (GSK3B (GSK3 beta)): −4%
% Inhibition Point 1 (RPS6KA5 (MSK1)): −215%
% Inhibition Point 2 (RPS6KA5 (MSK1)): −231%
% Inhibition mean (RPS6KA5 (MSK1)): −223%
% Inhibition Point 1 (MAPKAPK2): 0%
% Inhibition Point 2 (MAPKAPK2): −10%
% Inhibition mean (MAPKAPK2): −5%
% Inhibition Point 1 (CDK2/cyclin A): −297%
% Inhibition Point 2 (CDK2/cyclin A): −301%
% Inhibition mean (CDK2/cyclin A): −299%
% Inhibition Point 1 (TYK2): −98%
% Inhibition Point 2 (TYK2): −99%
% Inhibition mean (TYK2): −99%
% Inhibition Point 1 (JAK3): −90%
% Inhibition Point 2 (JAK3): −83%
% Inhibition mean (JAK3): −86%
% Inhibition Point 1 (SGK (SGK1)): −234%
% Inhibition Point 2 (SGK (SGK1)): −237%
% Inhibition mean (SGK (SGK1)): −236%
% Inhibition Point 1 (CAMK4 (CaMKIV)): −159%
% Inhibition Point 2 (CAMK4 (CaMKIV)): −201%
% Inhibition mean (CAMK4 (CaMKIV)): −180%
% Inhibition Point 1 (RPS6KA3 (RSK2)): −200%
% Inhibition Point 2 (RPS6KA3 (RSK2)): −212%
% Inhibition mean (RPS6KA3 (RSK2)): −206%
% Inhibition Point 1 (CAMK2A (CaMKII alpha)): −14%
% Inhibition Point 2 (CAMK2A (CaMKII alpha)): −10%
% Inhibition mean (CAMK2A (CaMKII alpha)): −12%
% Inhibition Point 1 (GRK6): 14%
% Inhibition Point 2 (GRK6): 17%
% Inhibition mean (GRK6): 16%
% Inhibition Point 1 (SRPK1): −49%
% Inhibition Point 2 (SRPK1): −38%
% Inhibition mean (SRPK1): −44%
% Inhibition Point 1 (SYK): 4%
% Inhibition Point 2 (SYK): −4%
% Inhibition mean (SYK): 0%

% Inhibition Point 1 (CSNK1G3 (CK1 gamma 3)): 30%
% Inhibition Point 2 (CSNK1G3 (CK1 gamma 3)): 31%
% Inhibition mean (CSNK1G3 (CK1 gamma 3)): 31%
% Inhibition Point 1 (GSK3B (GSK3 beta)): 61%
% Inhibition Point 2 (GSK3B (GSK3 beta)): 60%
% Inhibition mean (GSK3B (GSK3 beta)): 60%
% Inhibition Point 1 (RPS6KA5 (MSK1)): 35%
% Inhibition Point 2 (RPS6KA5 (MSK1)): 32%
% Inhibition mean (RPS6KA5 (MSK1)): 33%
% Inhibition Point 1 (MAPKAPK2): 48%
% Inhibition Point 2 (MAPKAPK2): 53%
% Inhibition mean (MAPKAPK2): 51%
% Inhibition Point 1 (CDK2/cyclin A): 9%
% Inhibition Point 2 (CDK2/cyclin A): 9%
% Inhibition mean (CDK2/cyclin A): 9%
% Inhibition Point 1 (TYK2): 7%
% Inhibition Point 2 (TYK2): 11%
% Inhibition mean (TYK2): 9%
% Inhibition Point 1 (JAK3): 41%
% Inhibition Point 2 (JAK3): 30%
% Inhibition mean (JAK3): 36%
% Inhibition Point 1 (SGK (SGK1)): 76%
% Inhibition Point 2 (SGK (SGK1)): 75%
% Inhibition mean (SGK (SGK1)): 76%
% Inhibition Point 1 (CAMK4 (CaMKIV)): 18%
% Inhibition Point 2 (CAMK4 (CaMKIV)): 24%
% Inhibition mean (CAMK4 (CaMKIV)): 21%
% Inhibition Point 1 (RPS6KA3 (RSK2)): 55%
% Inhibition Point 2 (RPS6KA3 (RSK2)): 56%
% Inhibition mean (RPS6KA3 (RSK2)): 55%
% Inhibition Point 1 (CAMK2A (CaMKII alpha)): 20%
% Inhibition Point 2 (CAMK2A (CaMKII alpha)): 24%
% Inhibition mean (CAMK2A (CaMKII alpha)): 22%
% Inhibition Point 1 (GRK6): 42%
% Inhibition Point 2 (GRK6): 43%
% Inhibition mean (GRK6): 42%
% Inhibition Point 1 (SRPK1): −6%
% Inhibition Point 2 (SRPK1): 2%
% Inhibition mean (SRPK1): −2%
% Inhibition Point 1 (SYK): 21%
% Inhibition Point 2 (SYK): 24%
% Inhibition mean (SYK): 23%
Structure (SMILES): COc1ccc(OC(=S)n2c(=O)oc3cc(C(C)=O)ccc32)cc1 [Compound 4A]

% Inhibition Point 1 (CSNK1G3 (CK1 gamma 3)): 51%
% Inhibition Point 2 (CSNK1G3 (CK1 gamma 3)): 48%
% Inhibition mean (CSNK1G3 (CK1 gamma 3)): 49%
% Inhibition Point 1 (GSK3B (GSK3 beta)): 92%
% Inhibition Point 2 (GSK3B (GSK3 beta)): 93%
% Inhibition mean (GSK3B (GSK3 beta)): 93%
% Inhibition Point 1 (RPS6KA5 (MSK1)): 49%
% Inhibition Point 2 (RPS6KA5 (MSK1)): 48%
% Inhibition mean (RPS6KA5 (MSK1)): 49%
% Inhibition Point 1 (MAPKAPK2): 90%
% Inhibition Point 2 (MAPKAPK2): 90%
% Inhibition mean (MAPKAPK2): 90%
% Inhibition Point 1 (CDK2/cyclin A): −2%
% Inhibition Point 2 (CDK2/cyclin A): 4%
% Inhibition mean (CDK2/cyclin A): 1%
% Inhibition Point 1 (TYK2): 17%
% Inhibition Point 2 (TYK2): 21%
% Inhibition mean (TYK2): 19%
% Inhibition Point 1 (JAK3): 65%
% Inhibition Point 2 (JAK3): 64%
% Inhibition mean (JAK3): 65%
% Inhibition Point 1 (SGK (SGK1)): 72%
% Inhibition Point 2 (SGK (SGK1)): 73%
% Inhibition mean (SGK (SGK1)): 73%
% Inhibition Point 1 (CAMK4 (CaMKIV)): 52%
% Inhibition Point 2 (CAMK4 (CaMKIV)): 46%
% Inhibition mean (CAMK4 (CaMKIV)): 49%
% Inhibition Point 1 (RPS6KA3 (RSK2)): 58%
% Inhibition Point 2 (RPS6KA3 (RSK2)): 64%
% Inhibition mean (RPS6KA3 (RSK2)): 61%
% Inhibition Point 1 (CAMK2A (CaMKII alpha)): 57%
% Inhibition Point 2 (CAMK2A (CaMKII alpha)): 55%
% Inhibition mean (CAMK2A (CaMKII alpha)): 56%
% Inhibition Point 1 (GRK6): 71%
% Inhibition Point 2 (GRK6): 71%
% Inhibition mean (GRK6): 71%
% Inhibition Point 1 (SRPK1): 0%
% Inhibition Point 2 (SRPK1): 2%
% Inhibition mean (SRPK1): 1%
% Inhibition Point 1 (SYK): 58%
% Inhibition Point 2 (SYK): 54%
% Inhibition mean (SYK): 56%
Structure (SMILES): COc1ccc(OC(=O)n2c(=S)oc3cc(C(C)=O)ccc32)cc1 [Compound 4B]
